Measurements from paper PMC8791448 (ACS infectious diseases, 2021).

Target: T1, ecLpxC (UDP-3-O-acyl-N-acetylglucosamine deacetylase) (Escherichia coli, UniProt P0A725)
T1 sequence (P0A725 1-305): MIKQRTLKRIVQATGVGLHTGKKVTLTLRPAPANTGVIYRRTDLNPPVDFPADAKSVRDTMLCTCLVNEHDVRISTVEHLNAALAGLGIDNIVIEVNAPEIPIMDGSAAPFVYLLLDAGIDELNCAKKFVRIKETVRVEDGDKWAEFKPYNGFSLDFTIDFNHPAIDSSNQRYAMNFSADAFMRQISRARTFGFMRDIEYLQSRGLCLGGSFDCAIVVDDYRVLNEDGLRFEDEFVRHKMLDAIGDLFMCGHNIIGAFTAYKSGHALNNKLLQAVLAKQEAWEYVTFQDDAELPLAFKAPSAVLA
Assay: residence time on purified ecLpxC by displacement with fluorescent ligand PT900
Assay type: binding
Details: read-out: tR (min)^b

C[C@@H](O)[C@H](NC(=O)c1ccc(C#Cc2ccc(CN3CCOCC3)cc2)cc1)C(=O)NO [CHIR-090]
residence time: 66 ± 30 min
